Calls of active or inactive are those of the source.

Assay [1] deals with Beta-adrenergic receptor kinase 1 (Homo sapiens, UniProt P25098). As to the kind of experiment: GRK2 inhibitors displacing RNA aptamer, dose response, biochemical, flow cytometry beads, FAM-aptamer, powder set 1 (AID 588720). A general note: Flow cytometry measures light scatter and fluorescence of single cells or particles in a stream.
In assay [2] the target is T1, Carboxy-terminal domain RNA polymerase II polypeptide A small phosphatase 1 (Homo sapiens, UniProt Q9GZU7).
T1 sequence (Q9GZU7 whole entry): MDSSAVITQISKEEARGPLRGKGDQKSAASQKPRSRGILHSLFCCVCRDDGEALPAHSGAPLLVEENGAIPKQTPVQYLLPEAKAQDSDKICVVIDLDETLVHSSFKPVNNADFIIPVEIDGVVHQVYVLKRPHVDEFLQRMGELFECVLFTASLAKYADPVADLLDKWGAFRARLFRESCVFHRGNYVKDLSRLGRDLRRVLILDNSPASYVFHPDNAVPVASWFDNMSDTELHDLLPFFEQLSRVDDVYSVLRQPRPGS
As to the kind of experiment: inhibitors of CTDSP1, concentration-response testing, biochemical assay, absorbance-based, actives from ultra-high-throughput screening (AID 540297). Format: functional.

Assay [3] concerns HEK293. As to the kind of experiment: NOD1 signaling inhibitors, primary screen, cell-based, luminescence, uHTS (AID 1578). Format: functional. To be noted: Homo sapiens.
Assay [4] deals with BJ. As to the kind of experiment: cytotoxicity toward BJ-TERT fibroblasts, dose response, cell-based, RAS-independent, luminescence (AID 1933). It is filed as functional. To be noted: Homo sapiens.
Assay [5] concerns HEK293. As to the kind of experiment: cells. Format: functional, cell-based. To be noted: Homo sapiens.
Assay [6] concerns BJ. As to the kind of experiment: cells. To be noted: Homo sapiens. It is filed as functional, cell-based.
Assay [7] has as its system HEK293. As to the kind of experiment: cells. It is filed as functional, cell-based. To be noted: Homo sapiens. This is another data set of the same source.
Assay [8] deals with Nucleotide-binding oligomerization domain-containing protein 2 (Homo sapiens, UniProt Q9HC29). As to the kind of experiment: NOD2 signaling inhibitors, cell-based, luminescence, uHTS, HEK293 (AID 1566). Format: functional.
Sequence of Nucleotide-binding oligomerization domain-containing protein 2 (Q9HC29 whole entry, the tested form may be a part): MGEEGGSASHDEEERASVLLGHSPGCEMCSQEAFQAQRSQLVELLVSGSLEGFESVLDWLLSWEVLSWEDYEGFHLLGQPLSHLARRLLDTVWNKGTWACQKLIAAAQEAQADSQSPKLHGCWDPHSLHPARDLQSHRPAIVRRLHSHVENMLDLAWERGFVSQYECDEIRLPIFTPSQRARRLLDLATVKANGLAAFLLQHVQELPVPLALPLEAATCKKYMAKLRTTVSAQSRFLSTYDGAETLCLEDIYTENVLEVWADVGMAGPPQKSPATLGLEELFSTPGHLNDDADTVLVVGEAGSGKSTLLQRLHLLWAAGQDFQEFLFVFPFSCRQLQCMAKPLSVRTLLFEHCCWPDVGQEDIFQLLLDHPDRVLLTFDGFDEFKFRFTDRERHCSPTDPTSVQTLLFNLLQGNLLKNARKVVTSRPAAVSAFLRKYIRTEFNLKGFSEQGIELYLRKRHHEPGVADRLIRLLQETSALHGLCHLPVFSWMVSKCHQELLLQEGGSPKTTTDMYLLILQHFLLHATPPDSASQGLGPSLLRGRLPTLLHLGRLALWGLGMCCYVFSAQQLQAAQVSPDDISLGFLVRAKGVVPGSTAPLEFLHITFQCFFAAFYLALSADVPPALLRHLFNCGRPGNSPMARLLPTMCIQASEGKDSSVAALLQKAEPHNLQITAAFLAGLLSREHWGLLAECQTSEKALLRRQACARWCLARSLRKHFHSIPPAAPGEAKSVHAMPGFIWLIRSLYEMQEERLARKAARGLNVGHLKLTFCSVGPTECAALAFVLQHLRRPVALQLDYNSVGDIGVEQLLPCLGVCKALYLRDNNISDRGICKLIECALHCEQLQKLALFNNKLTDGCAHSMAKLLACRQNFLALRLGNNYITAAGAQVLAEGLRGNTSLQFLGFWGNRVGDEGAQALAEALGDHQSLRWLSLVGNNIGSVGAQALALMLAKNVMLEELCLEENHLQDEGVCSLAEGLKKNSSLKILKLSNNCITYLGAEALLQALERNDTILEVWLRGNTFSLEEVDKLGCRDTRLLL
For assay [9], the system named is HEK293. As to the kind of experiment: NOD2 signaling inhibitors in MDP-stimulated cells, cell-based, uHTS, luminescence (AID 2001). It is filed as functional. To be noted: Homo sapiens.
The subject of assay [10] is HEK293. As to the kind of experiment: cells. Format: functional, cell-based. To be noted: Homo sapiens. The source holds these as a separate data set.
The target in assay [11] is Sphingosine 1-phosphate receptor 4 (Homo sapiens, UniProt O95977). As to the kind of experiment: Fluorescence dose response cell-based high throughput screening assay for antagonists of the Sphingosine 1-Phosphate Receptor 4 (S1P4). [Related pubchem assays: 1524 (Confirmation in triplicates.), 1510 (Primary screen.)]. It is filed as functional.
Sequence of Sphingosine 1-phosphate receptor 4 (O95977 whole entry): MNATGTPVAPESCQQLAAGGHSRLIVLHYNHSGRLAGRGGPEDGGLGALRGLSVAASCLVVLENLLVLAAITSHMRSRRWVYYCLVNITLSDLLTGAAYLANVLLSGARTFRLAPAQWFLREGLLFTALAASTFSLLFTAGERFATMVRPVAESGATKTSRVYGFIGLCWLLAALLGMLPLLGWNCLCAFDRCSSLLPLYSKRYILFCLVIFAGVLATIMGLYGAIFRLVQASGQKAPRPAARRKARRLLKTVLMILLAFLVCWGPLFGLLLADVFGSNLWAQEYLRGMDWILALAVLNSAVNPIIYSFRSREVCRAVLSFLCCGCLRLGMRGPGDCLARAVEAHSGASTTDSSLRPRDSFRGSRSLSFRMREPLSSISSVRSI
The test system of assay [12] is BJ. As to the kind of experiment: cytotoxicity toward BJ-TERT-LT-ST fibroblasts, dose response, cell-based, RAS-independent, luminescence (AID 1935).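 Also: BJ fibroblasts immortalized with TERT plus LT and ST oncogenes.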 It is filed as functional. To be noted: Homo sapiens.
Assay [13] is described as follows: cytotoxicity toward DRD oncogenic fibroblasts, dose response, cell-based, non-viral oncogenic, luminescence (AID 1934). Format: functional. To be noted: Homo sapiens.
The target in assay [14] is Sphingosine 1-phosphate receptor 1 (Homo sapiens, UniProt P21453). It is filed as functional.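 Also: Tango beta-arrestin reporter U2OS cells stimulated with S1P near its EC80; inhibitor potency meaning antagonism of receptor activation by the natural agonist.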
Sequence of Sphingosine 1-phosphate receptor 1 (P21453 whole entry): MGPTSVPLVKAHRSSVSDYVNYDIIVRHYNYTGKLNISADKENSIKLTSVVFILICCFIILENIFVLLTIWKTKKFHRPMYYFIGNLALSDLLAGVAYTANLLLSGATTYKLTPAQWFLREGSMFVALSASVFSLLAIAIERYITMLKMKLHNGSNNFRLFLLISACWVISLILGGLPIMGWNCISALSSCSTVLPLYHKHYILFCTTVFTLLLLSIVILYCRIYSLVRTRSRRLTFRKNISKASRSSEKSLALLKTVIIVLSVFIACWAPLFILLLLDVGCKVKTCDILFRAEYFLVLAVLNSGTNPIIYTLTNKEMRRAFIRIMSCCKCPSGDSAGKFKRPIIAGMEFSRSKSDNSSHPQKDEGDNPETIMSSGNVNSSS
Assay [15] can be described thus: Intein inhibitors as potential Tuberculosis drugs, a cytotoxicity screen. [Related pubchem assays (depositor defined):AID2221, AID2223, AID434968, AID435010, AID449749, AID449750, AID489010]. Format: functional.
The target in assay [16] is T2, Replicative DNA helicase DnaB (Mycobacterium tuberculosis, UniProt P9WMR3).
T2 sequence (P9WMR3 whole entry): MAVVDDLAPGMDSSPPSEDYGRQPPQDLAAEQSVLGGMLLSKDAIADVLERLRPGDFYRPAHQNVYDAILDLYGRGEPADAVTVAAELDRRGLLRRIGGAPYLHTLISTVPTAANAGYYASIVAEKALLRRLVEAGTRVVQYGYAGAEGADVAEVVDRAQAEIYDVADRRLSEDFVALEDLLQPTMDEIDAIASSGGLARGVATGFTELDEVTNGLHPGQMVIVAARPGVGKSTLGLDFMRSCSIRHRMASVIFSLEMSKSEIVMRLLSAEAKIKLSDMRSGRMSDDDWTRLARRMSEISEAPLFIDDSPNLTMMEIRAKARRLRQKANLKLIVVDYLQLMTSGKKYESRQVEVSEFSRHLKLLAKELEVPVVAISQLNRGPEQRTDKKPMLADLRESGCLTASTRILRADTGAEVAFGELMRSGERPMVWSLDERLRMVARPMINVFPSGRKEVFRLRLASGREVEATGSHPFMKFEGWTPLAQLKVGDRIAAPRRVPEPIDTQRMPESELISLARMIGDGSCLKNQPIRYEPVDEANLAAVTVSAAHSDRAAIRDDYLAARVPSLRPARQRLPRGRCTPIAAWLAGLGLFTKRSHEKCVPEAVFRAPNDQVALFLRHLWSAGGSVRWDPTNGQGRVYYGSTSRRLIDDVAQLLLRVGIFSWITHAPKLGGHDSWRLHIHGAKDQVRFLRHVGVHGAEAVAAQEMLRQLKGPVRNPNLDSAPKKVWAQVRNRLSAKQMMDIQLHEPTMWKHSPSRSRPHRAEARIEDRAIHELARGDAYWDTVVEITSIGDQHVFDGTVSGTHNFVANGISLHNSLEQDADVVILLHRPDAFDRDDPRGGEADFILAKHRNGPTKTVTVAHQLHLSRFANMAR
As to the kind of experiment: DnaB intein splicing inhibitors, dose response, biochemical, cell-free fluorescence (AID 449749). Format: functional.

The next assay addresses T3, Protein RecA (Mycobacterium tuberculosis, UniProt P9WHJ3).
T3 sequence (P9WHJ3 whole entry): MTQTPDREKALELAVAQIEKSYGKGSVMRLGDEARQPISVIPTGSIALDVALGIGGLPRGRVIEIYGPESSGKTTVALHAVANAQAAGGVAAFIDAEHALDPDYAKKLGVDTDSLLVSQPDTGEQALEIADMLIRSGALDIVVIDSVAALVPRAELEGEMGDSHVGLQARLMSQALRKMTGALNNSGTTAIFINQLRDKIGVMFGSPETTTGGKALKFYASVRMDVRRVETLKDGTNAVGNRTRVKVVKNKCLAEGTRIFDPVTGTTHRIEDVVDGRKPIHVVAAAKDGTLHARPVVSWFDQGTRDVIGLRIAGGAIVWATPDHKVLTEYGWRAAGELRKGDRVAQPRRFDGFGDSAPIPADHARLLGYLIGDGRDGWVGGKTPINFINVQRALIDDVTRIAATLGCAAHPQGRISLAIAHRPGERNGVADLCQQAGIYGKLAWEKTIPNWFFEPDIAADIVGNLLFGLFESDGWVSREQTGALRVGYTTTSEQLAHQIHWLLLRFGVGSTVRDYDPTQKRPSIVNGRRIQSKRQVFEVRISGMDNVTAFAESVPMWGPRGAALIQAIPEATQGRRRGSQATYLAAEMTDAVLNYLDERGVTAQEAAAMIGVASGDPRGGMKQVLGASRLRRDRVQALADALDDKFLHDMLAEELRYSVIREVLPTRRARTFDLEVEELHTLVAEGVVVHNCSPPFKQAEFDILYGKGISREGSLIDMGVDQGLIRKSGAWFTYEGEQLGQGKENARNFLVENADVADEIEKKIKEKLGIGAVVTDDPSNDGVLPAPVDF
As to the kind of experiment: Fluorescence Cell-Free Homogeneous Dose Retest to Identify Inhibitors of RecA-Intein Splicing Activity. [Related pubchem assays (depositor defined):AID2097, AID2223, AID489010, AID492950]. Format: functional.

The next assay deals with Melanocortin receptor 4 (Homo sapiens, UniProt P32245). As to the kind of experiment: MC4R antagonist potency on cAMP, dose response, cell-based, TR-FRET, biased antagonists (AID 602298).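 Also: antagonist potency against agonist-stimulated cAMP production.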 Format: functional.
Sequence of Melanocortin receptor 4 (P32245 whole entry): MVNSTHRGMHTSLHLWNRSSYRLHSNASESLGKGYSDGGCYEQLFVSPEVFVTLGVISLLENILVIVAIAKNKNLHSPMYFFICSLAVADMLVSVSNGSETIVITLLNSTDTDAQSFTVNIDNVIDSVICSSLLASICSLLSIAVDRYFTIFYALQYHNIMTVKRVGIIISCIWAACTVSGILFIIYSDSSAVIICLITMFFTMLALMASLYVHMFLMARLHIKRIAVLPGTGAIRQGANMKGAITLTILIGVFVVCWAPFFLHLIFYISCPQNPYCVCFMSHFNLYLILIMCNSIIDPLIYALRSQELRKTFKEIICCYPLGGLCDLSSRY
Assay [17] in a line: nonselective inhibitors of cellular cAMP signaling, dose response, counter-screen for MC4R biased antagonist project, cell-based, TR-FRET cAMP detection (AID 602305).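 Also: U2OS cells stimulated with forskolin near its EC80 as the cAMP inducer; potency is for inhibition of forskolin-stimulated cAMP signaling.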 Format: functional. On the technique in general: Counterscreens check selectivity or assay interference.
Assay [18] in a line: Luminescence Cell-Based Dose Confirmation HTS to Identify Activators of 5'UTR Stem-Loop Driven Alpha-Synuclein mRNA Translation in H4 Neuroglioblastoma Cells. [Related pubchem assays: 1829 (Project Summary), 1814 (Primary HTS)]. It is filed as functional.
Assay [19] in a line: Luminescence Cell-Based Dose Response HTS to Identify Activators of Luciferase Translation or Activity in H4 […] Cells. [Related pubchem assays: 1829 (Project Summary), 1814 (Primary HTS)]. Format: functional.
For another assay, the system named is H4. As to the kind of experiment: Luminescence Cell-Based Dose Response HTS to Identify Activators of 5'UTR Stem-Loop Driven Prion Protein mRNA Translation in H4 Neuroglioblastoma Cells. [Related pubchem assays: 1829 (Project Summary), 1814 (Primary HTS)]. Format: functional. To be noted: Homo sapiens.
The subject of assay [20] is HEK293. As to the kind of experiment: cells. Format: functional, cell-based. To be noted: Homo sapiens. The source holds these as a separate data set.
For assay [21], the target named is Nuclear receptor subfamily 0 group B member 1 (Homo sapiens, UniProt P51843). As to the kind of experiment: Luminescence-based cell-based high throughput dose response assay for inhibitors of the orphan nuclear receptor subfamily 0, group B, member 1 (DAX1; NR0B1). [Related pubchem assays (depositor defined):AID504766, AID504790]. Format: functional.
Sequence of Nuclear receptor subfamily 0 group B member 1 (P51843 whole entry): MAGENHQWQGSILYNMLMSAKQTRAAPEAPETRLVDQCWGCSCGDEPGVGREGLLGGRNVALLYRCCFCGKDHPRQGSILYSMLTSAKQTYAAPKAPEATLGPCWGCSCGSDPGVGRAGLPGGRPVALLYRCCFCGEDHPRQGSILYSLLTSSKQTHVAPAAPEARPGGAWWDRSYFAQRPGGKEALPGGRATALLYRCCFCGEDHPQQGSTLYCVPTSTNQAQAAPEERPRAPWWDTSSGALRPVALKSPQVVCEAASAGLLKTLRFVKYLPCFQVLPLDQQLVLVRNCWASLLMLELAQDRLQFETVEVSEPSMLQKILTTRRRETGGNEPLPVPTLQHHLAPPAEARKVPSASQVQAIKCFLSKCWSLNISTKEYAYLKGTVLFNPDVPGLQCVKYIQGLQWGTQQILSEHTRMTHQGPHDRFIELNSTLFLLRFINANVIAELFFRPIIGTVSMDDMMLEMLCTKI
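For CC50 in this document: cells exposed to compound for 72 hours before luminescence readout.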

Sequence of Beta-adrenergic receptor kinase 1 (P25098 whole entry, the tested form may be a part): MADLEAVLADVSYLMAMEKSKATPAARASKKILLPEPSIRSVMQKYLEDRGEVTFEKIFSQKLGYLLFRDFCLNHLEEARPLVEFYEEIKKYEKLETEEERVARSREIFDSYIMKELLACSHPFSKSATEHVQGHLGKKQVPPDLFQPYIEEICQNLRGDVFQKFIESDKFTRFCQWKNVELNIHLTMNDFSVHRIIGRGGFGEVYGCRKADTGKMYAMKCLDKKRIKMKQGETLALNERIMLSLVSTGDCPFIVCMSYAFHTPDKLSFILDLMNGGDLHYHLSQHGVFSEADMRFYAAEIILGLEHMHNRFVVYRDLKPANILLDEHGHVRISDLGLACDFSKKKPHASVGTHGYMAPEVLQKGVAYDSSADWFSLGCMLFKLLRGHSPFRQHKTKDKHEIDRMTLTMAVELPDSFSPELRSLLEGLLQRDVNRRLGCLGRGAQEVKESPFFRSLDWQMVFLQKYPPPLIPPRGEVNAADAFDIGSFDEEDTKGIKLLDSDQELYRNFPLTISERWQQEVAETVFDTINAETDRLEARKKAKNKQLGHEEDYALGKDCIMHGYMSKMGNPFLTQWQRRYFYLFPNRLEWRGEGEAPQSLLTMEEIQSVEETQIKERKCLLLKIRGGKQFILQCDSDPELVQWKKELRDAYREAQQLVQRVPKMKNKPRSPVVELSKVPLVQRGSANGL

With `C#CCSc1nc2sc3c(c2c(=O)n1C)CCC3`, the concentration for a half-maximal effect (EC50) in assay [1] is 2.72 µM (active). For the same molecule, the 50% inhibitory concentration (IC50) in assay [2] is 6.45 µM (active).

For `CC(=O)n1cc(N(C(=O)CCl)c2ccc(C)cc2)c2ccccc21`, the concentration giving a half-maximal response (EC50) in the assay with HEK293 [3] was 16.2 µM (active); with BJ [4] it was 0.812 µM (inconclusive); in the assay on BJ [6] it was 2.65 µM (inconclusive); in assay [8] it was > 20 µM (inactive); in the assay on BJ [12] it was 5.27 µM (inconclusive); in assay [13] it was 1.2 µM (active). The concentration for a half-maximal effect (EC50) on Protein RecA is 0.248 µM (active). In addition, the half-inhibitory concentration (IC50) was 3.22 µM (active) in the assay on HEK293 [5]; 11.5 µM (active) with HEK293 [7]; 5.38 µM (active) in the assay on HEK293 [9]; > 20 µM (inactive) in the assay on HEK293 [10]; 1.3 µM (active) in assay [11]; 14.5 µM (not active) in assay [14]. The IC50 (at Melanocortin receptor 4; in [17]) was > 64.6 µM (inactive) throughout. In addition, the CC50 in [15] is 0.83 µM (active). In addition, in assay [16], the half-maximal activity concentration (AC50) is 2.53 µM (active).

Turning to `COC(=O)c1cc2c(s1)-c1ccc(OC)cc1CC2`, the figures for the 50% effective concentration (EC50) (in assay [18]; in assay [19]; in the assay on H4) were 9.47 µM (active), 18.7 µM (active) and 46.2 µM (active), respectively. The IC50 was > 22.5 µM (inactive) in the assay with HEK293 [20] and > 67.5 µM (inactive) in [21].

Broadly, the EC50 is the concentration needed to bring the measured effect to its halfway point. Usually IC50 stands for the midpoint of a concentration-inhibition curve. What is called CC50 is the concentration at which the toxic effect on the cells reaches its halfway point. One may read the AC50 as the concentration giving half of the maximal activity seen.

The values above are taken from ChEMBL document CHEMBL1201862, “PubChem BioAssay data set” (2004).
